Source: PMC11627468, “Novel enzyme‐resistant pancreatic polypeptide analogs evoke pancreatic beta‐cell rest, enhance islet cell turnover, and inhibit food intake in mice” (Biofactors (Oxford, England), 2024)

How the values were obtained:
BRIN‐BD11 beta‐cells = test: In vitro insulin secretion from BRIN‐BD11 beta‐cells; format: cell-based; conditions: 20 min, insulin radioimmunoassay, n = 8
Method: Effects of the PP and related peptides on insulin secretion were examined in pancreatic BRIN‐BD11 beta‐cells. The secretory characteristics of this cell line have been described in detail previously.[22] Cells were cultured in RPMI 1640 media (Gibco Life Technologies Ltd), with a glucose concentration of 11.1 mM and supplemented with 10% v/v fetal bovine serum (Gibco), 1% v/v antibiotics (0.1 mg/mL streptomycin and 100 U/mL penicillin) at 37°C in 5% atmospheric CO2. For experimentation, cells were seeded into 24‐well plates (Falcon Ltd) at a density of 150,000 cells per well. Following overnight attachment, media was aspirated, and cells were preincubated in 1.1 mM glucose KRB buffer for 40 min. Following preincubation, the 1.1 mM glucose solution was removed and 1 mL of KRB test solution, containing 16.7 mM glucose with PP peptides (10^−12 to 10^−6 M) was added for 20 min. In a separate series, PP peptides were also incubated in the presence of alanine (10 mM) at 16.7 mM glucose to further investigate the effects on insulin secretion. For all experiments, following a 20 min incubation period, the supernatant was collected and stored at −20°C until insulin concentration determination using a dextran‐coated charcoal insulin radioimmunoassay.[23]

C57BL/6 mice [1] = test: Acute food intake in overnight fasted mice; format: in vivo; conditions: n = 6
Method: (§1) Acute in vivo studies were conducted in groups (n = 6) of 4‐month‐old male C57BL/6 mice (Envigo, Huntington, UK). All mice were maintained on standard rodent chow (10% fat, 30% protein, and 60% carbohydrate; Trouw Nutrition, Northwich, UK), and drinking water provided ad libitum. Mice were housed individually and kept in a temperature‐controlled environment (22 ± 2°C), with a 12‐h light/dark cycle. Experiments were carried out in accordance with the UK Animal Scientific Procedures Act 1986 as well as being approved by Ulster University Animal Ethics Review Committee (AWERB) committee and protected by the UK Home Office Animal project license number PPL2902, approved on April 26, 2021. Acute effects of test peptides on food intake were tested in overnight (16 h) fasted mice. Briefly, fasted mice were administered an intraperitoneal (i.p.) injection of saline vehicle (0.9% (w/v) NaCl) alone or in combination with test peptides (each at 25, 75, or 200 nmol/kg bw) and cumulative food intake measured at regular intervals, to assess the pharmacodynamic profile of the test peptides. For food intake studies, mice were provided with preweighed rodent maintenance diet in their food hopper at t = 0 min, which was then re‐weighed at each timepoint with all due care taken to account for any wastage or crumbling of the food pellets. In this regard, the investigator was present at all times during the 180‐min test period to ensure accuracy and consistency in all measurements. Furthermore, effects of PP or related peptides (25 nmol/kg bw) on glucose homeostasis and insulin secretion were evaluated in overnight fasted mice following i.p. injection of glucose alone (18 mmol/kg bw) or in combination with PP peptides (each at 25 nmol/kg bw).

C57BL/6 mice [2] = test: Glucose tolerance in mice; format: in vivo; conditions: peptide 25 nmol/kg i.p. conjointly with glucose 18 mmol/kg, overnight fasted mice; n = 6
Method: as §1, with “bw). […] Blood glucose was measured immediately using a hand‐held Ascencia Contour blood glucose meter (Bayer Healthcare, Newbury, Berkshire, UK). […]” for “bw).”

[3] = in vivo; cited from earlier work
Method: Despite these prominent therapeutically exploitable advantages, clinical utilization of native PP as a positive NPY4R modulator is limited by a short circulatory half‐life of less than 7 min.[17] This appears to be due to rapid cleavage of the N‐terminal dipeptide, Ala^1‐Pro^2, from PP by the ubiquitous enzyme dipeptidyl peptidase‐4 (DPP‐4).[18] […] As such, DPP‐4 resistant PP mole ...

CC[C@H](C)[C@H](NC(=O)[C@H](Cc1ccc(O)cc1)NC(=O)[C@H](CCCNC(=N)N)NC(=O)[C@H](CCCNC(=N)N)NC(=O)[C@H](CC(C)C)NC(=O)[C@H](CC(=O)O)NC(=O)[C@H](C)NC(=O)[C@H](C)NC(=O)[C@H](Cc1ccc(O)cc1)NC(=O)[C@H](CCC(N)=O)NC(=O)[C@H](C)NC(=O)[C@H](CCSC)NC(=O)[C@H](CCC(N)=O)NC(=O)[C@H](CCC(=O)O)NC(=O)[C@@H]1CCCN1C(=O)[C@@H](NC(=O)[C@H](C)NC(=O)[C@H](CC(N)=O)NC(=O)[C@H](CC(=O)O)NC(=O)CNC(=O)[C@@H]1CCCN1C(=O)[C@H](Cc1ccc(O)cc1)NC(=O)[C@@H](NC(=O)[C@@H]1CCCN1C(=O)[C@H](CCC(=O)O)NC(=O)[C@H](CC(C)C)NC(=O)[C@@H]1CCCN1C(=O)[C@H](C)N)C(C)C)[C@@H](C)O)C(=O)N[C@@H](CC(N)=O)C(=O)N[C@@H](CCSC)C(=O)N[C@@H](CC(C)C)C(=O)N[C@H](C(=O)N[C@@H](CCCNC(=N)N)C(=O)N1CCC[C@H]1C(=O)N[C@@H](CCCNC(=N)N)C(=O)N[C@@H](Cc1ccc(O)cc1)C(N)=O)[C@@H](C)O [PP, Pancreatic polypeptide]
insulin secretion at 16.7 mM glucose (BRIN‐BD11 beta‐cells; peptide 10^−6 M): slight inhibitory effect | insulin secretion at 16.7 mM glucose (BRIN‐BD11 beta‐cells; peptides 10^−12 to 10^−7 M): no discernible impact | cumulative food intake (appetite suppression) (C57BL/6 mice [1]; 25 nmol/kg i.p., overnight (16 h) fasted mice, up to 180 min, versus saline): particularly effective | food intake in combination with CCK‐8 (C57BL/6 mice [1]; PP peptide 25 nmol/kg with CCK‐8 25 nmol/kg i.p., fasted mice, compared with CCK‐8): significantly (p = <0.05 to 0.01) augment this effect from 90 min onwards | food intake in combination with exendin‐4 (C57BL/6 mice [1]; PP peptide 25 nmol/kg with exendin‐4 0.25 nmol/kg i.p., fasted mice): additive appetite suppressive actions | glucose homeostasis (blood glucose) (C57BL/6 mice [2]): Neither native PP, nor related PP analogs, exerted any effect | circulatory half‐life [3]: less than 7 min
